According to patent US4808711A, “Cephalosporin derivatives” (Sankei Pharmaceutical Co., Ltd., priority 1985, dated 1989):
Values after ≈ are worked out from the molar mass of the structure shown. Structures can show the parent of a compound that is named as a salt. Where two headings read alike, the source gives them in different places.

Assays:
Type in all cases: cell-based
K. pneumoniae ATCC27736 = experiment: MIC, K. pneumoniae ATCC27736; details: Klebsiella pneumoniae, read-out: MIC
Experimental: (§1) The minimum inhibition concentrations (MIC) of the compounds obtained by the present invention were measured according to the standard method of Japanese Chemotherapy Association.

P. rettgeri ATCC14505 = experiment: MIC, P. rettgeri ATCC14505; details: Providencia rettgeri, read-out: MIC
Experimental: as §1

S. marcescens IFO12648 = experiment: MIC, S. marcescens IFO12648; details: Serratia marcescens, read-out: MIC
Experimental: as §1

C. freundii IFO12681 = experiment: MIC, C. freundii IFO12681; details: Citrobacter freundii, read-out: MIC
Experimental: as §1

S. typhimurium IFO 12529 = experiment: MIC, S. typhimurium IFO 12529; details: Salmonella enterica, read-out: MIC
Experimental: as §1

S. typhi 1099-77 = experiment: MIC, S. typhi 1099-77; details: Salmonella enterica
Experimental: as §1

S. epidermidis ATCC14990 = experiment: MIC, S. epidermidis ATCC14990; details: Staphylococcus epidermidis, read-out: MIC
Experimental: as §1

P. vulgaris ATCC6380 = experiment: MIC, P. vulgaris ATCC6380; details: Proteus vulgaris, read-out: MIC
Experimental: as §1

P. maltophilia ATCC13637 = experiment: MIC, P. maltophilia ATCC13637; details: Stenotrophomonas maltophilia
Experimental: as §1

P. mirabilis IFO3849 = experiment: MIC, P. mirabilis IFO3849; details: Proteus mirabilis, read-out: MIC
Experimental: as §1

S. aureus ATCC25923 = experiment: MIC, S. aureus ATCC25923; details: Staphylococcus aureus; S. aureus ATCC25923; read-out: MIC
Experimental: as §1

S. boyadii CDC 2064-59 = experiment: MIC, S. boyadii CDC 2064-59
Experimental: as §1

[1] = system: S. flexneri 2a CDC 4807-62; experiment: MIC, S. flexneri 2a CDC 4807-62; details: Shigella flexneri, read-out: MIC
Experimental: as §1

S. aureus TASAKI = experiment: MIC, S. aureus TASAKI; details: Staphylococcus aureus
Experimental: as §1

S. flexneri Y NCTC 9730 = experiment: MIC, S. flexneri Y NCTC 9730; details: Shigella flexneri, NCTC9730, read-out: MIC
Experimental: as §1

S. paratyphi A 144-12-93 = experiment: MIC, S. paratyphi A 144-12-93; details: Salmonella enterica, PARATYPHI
Experimental: as §1

E. cloacae ATCC13047 = experiment: MIC, E. cloacae ATCC13047; details: Enterobacter cloacae
Experimental: as §1

S. newport 563 = experiment: MIC, S. newport 563; details: Salmonella enterica, read-out: MIC
Experimental: as §1

E. coli ATCC25922 = experiment: MIC, E. coli ATCC25922; details: Escherichia coli, read-out: MIC
Experimental: as §1

S. paratyphi B = experiment: MIC, S. paratyphi B; details: Salmonella enterica, PARATYPHI
Experimental: as §1

S. typhimurium ATCC13311 = experiment: MIC, S. typhimurium ATCC13311; details: Salmonella enterica, read-out: MIC
Experimental: as §1

S. paratyphi C 33-76 = experiment: MIC, S. paratyphi C 33-76; details: Salmonella enterica, PARATYPHI
Experimental: as §1

S. aureus 209P JC-1 = experiment: MIC, S. aureus 209P JC-1; details: Staphylococcus aureus; S. aureus 209P JC-1; read-out: MIC
Experimental: as §1

S. aureus Smith = experiment: MIC, S. aureus Smith; details: Staphylococcus aureus, read-out: MIC
Experimental: as §1

B. subtilis ATCC6633 = experiment: MIC, B. subtilis ATCC6633; details: Bacillus subtilis; B. subtilis ATCC6633; read-out: MIC
Experimental: as §1

S. sonnei SH72-415 = experiment: MIC, S. sonnei SH72-415; details: Shigella sonnei, SH72415, read-out: MIC
Experimental: as §1

E. coli NIHJ JC-2 = experiment: MIC, E. coli NIHJ JC-2; details: Escherichia coli, NIHJJC2, read-out: MIC
Experimental: as §1

S. faecalis IFO3826 = experiment: MIC, S. faecalis IFO3826; details: Enterococcus faecalis, read-out: MIC
Experimental: as §1

S. anatum 677-69 = experiment: MIC, S. anatum 677-69; details: Salmonella enterica, 67769, read-out: MIC
Experimental: as §1

P. putida ATCC12633 = experiment: MIC, P. putida ATCC12633; details: Pseudomonas putida
Experimental: as §1

P. vulgaris ATCC6398 = experiment: MIC, P. vulgaris ATCC6398; details: Proteus vulgaris, read-out: MIC
Experimental: as §1

P. aeruginosa ATCC9721 = experiment: MIC, P. aeruginosa ATCC9721; details: Pseudomonas aeruginosa; P. aeruginosa ATCC9721; read-out: MIC
Experimental: as §1

S. dysenteriae 4379-60 = experiment: MIC, S. dysenteriae 4379-60; details: Shigella dysenteriae, 437960
Experimental: as §1

P. cepacia ATCC25416 = experiment: MIC, P. cepacia ATCC25416; details: Burkholderia cepacia, read-out: MIC
Experimental: as §1

P. fluorescens ATCC13525 = experiment: MIC, P. fluorescens ATCC13525; details: Pseudomonas fluorescens, read-out: MIC
Experimental: as §1

[2] = S. aureus TASAKI, standard method of Japanese Chemotherapy Association, read-out: MIC

Row | SMILES | MIC (K. pneumoniae ATCC27736) [µg/mL] | MIC (P. rettgeri ATCC14505) [µg/mL] | MIC (S. marcescens IFO12648) [µg/mL] | MIC (C. freundii IFO12681) [µg/mL] | MIC (S. typhimurium IFO 12529) [µg/mL] | MIC (S. epidermidis ATCC14990) [µg/mL] | MIC (P. vulgaris ATCC6380) [µg/mL] | MIC (P. maltophilia ATCC13637) [µg/mL] | MIC (P. mirabilis IFO3849) [µg/mL] | MIC (S. aureus ATCC25923) [µg/mL] | MIC (S. boyadii CDC 2064-59) [µg/mL] | MIC [1] [µg/mL] | MIC (S. flexneri Y NCTC 9730) [µg/mL] | MIC (S. paratyphi A 144-12-93) [µg/mL] | MIC (E. cloacae ATCC13047) [µg/mL] | MIC (S. newport 563) [µg/mL] | MIC (E. coli ATCC25922) [µg/mL] | MIC (S. paratyphi B) [µg/mL] | MIC (S. typhimurium ATCC13311) [µg/mL] | MIC (S. paratyphi C 33-76) [µg/mL] | also measured
1 | CN(C)CCn1nnnc1SCC1=C(C(=O)O)N2C(=O)[C@@H](NC(=O)Cc3csc(N)n3)[C@H]2SC1 [CTM, cephothiam] | 0.1 (≈ 0.19 µM) | 3.13 (≈ 5.95 µM) | 6.25 (≈ 11.9 µM) | 3.13 (≈ 5.95 µM) | 0.2 (≈ 0.38 µM) | 0.39 (≈ 0.742 µM) | > 100 | > 100 | 0.78 (≈ 1.48 µM) | 0.39 (≈ 0.742 µM) | 0.39 (≈ 0.742 µM) | 0.1 (≈ 0.19 µM) | 0.78 (≈ 1.48 µM) | 0.39 (≈ 0.742 µM) | 50 (≈ 95.1 µM) | 0.39 (≈ 0.742 µM) | 0.2 (≈ 0.38 µM) | 0.2 (≈ 0.38 µM) | 0.1 (≈ 0.19 µM) | 0.05 (≈ 0.0951 µM) | MIC (S. typhi 1099-77; TYPHI): 0.1 µg/mL (≈ 0.19 µM); MIC (S. aureus TASAKI; [2]): 0.39 µg/mL (≈ 0.742 µM); MIC (S. aureus 209P JC-1): 0.2 µg/mL (≈ 0.38 µM); MIC (S. aureus Smith): 0.39 µg/mL (≈ 0.742 µM); MIC (B. subtilis ATCC6633): 0.39 µg/mL (≈ 0.742 µM); MIC (S. sonnei SH72-415): 0.2 µg/mL (≈ 0.38 µM); MIC (E. coli NIHJ JC-2): 0.2 µg/mL (≈ 0.38 µM); MIC (S. faecalis IFO3826): > 100 µg/mL; MIC (S. anatum 677-69): 0.2 µg/mL (≈ 0.38 µM); MIC (P. putida ATCC12633): > 100 µg/mL; MIC (P. vulgaris ATCC6398): > 100 µg/mL; MIC (P. aeruginosa ATCC9721): > 100 µg/mL; MIC (S. dysenteriae 4379-60): 0.05 µg/mL (≈ 0.0951 µM); MIC (P. cepacia ATCC25416): 0.39 µg/mL (≈ 0.742 µM)
2 | CO/N=C(\C(=O)N[C@@H]1C(=O)N2C(C(=O)O)=C(COC(C)=O)CS[C@H]12)c1csc(N)n1 [CTX, cephotaxim] | 0.1 (≈ 0.22 µM) | 0.1 (≈ 0.22 µM) | 0.2 (≈ 0.439 µM) | 0.1 (≈ 0.22 µM) | 0.2 (≈ 0.439 µM) | 0.78 (≈ 1.71 µM) | 0.05 (≈ 0.11 µM) | 50 (≈ 110 µM) | 0.05 (≈ 0.11 µM) | 0.78 (≈ 1.71 µM) | 0.39 (≈ 0.856 µM) | 0.025 (≈ 0.0549 µM) | 0.05 (≈ 0.11 µM) | 0.2 (≈ 0.439 µM) | 3.13 (≈ 6.87 µM) | 0.1 (≈ 0.22 µM) | 0.1 (≈ 0.22 µM) | 0.1 (≈ 0.22 µM) | 0.05 (≈ 0.11 µM) | ≤ 0.006 | MIC (S. typhi 1099-77; S. typhi 1099-77, read-out: MIC): 0.1 µg/mL (≈ 0.22 µM); MIC (S. aureus TASAKI): 1.56 µg/mL (≈ 3.43 µM); MIC (S. aureus 209P JC-1): 0.39 µg/mL (≈ 0.856 µM); MIC (S. aureus Smith): 3.13 µg/mL (≈ 6.87 µM); MIC (B. subtilis ATCC6633): 0.39 µg/mL (≈ 0.856 µM); MIC (S. sonnei SH72-415): 0.05 µg/mL (≈ 0.11 µM); MIC (E. coli NIHJ JC-2): 0.1 µg/mL (≈ 0.22 µM); MIC (S. faecalis IFO3826): > 100 µg/mL; MIC (S. anatum 677-69): 0.1 µg/mL (≈ 0.22 µM); MIC (P. putida ATCC12633): 50 µg/mL (≈ 110 µM); MIC (P. vulgaris ATCC6398): ≤ 0.006 µg/mL; MIC (P. aeruginosa ATCC9721): 3.13 µg/mL (≈ 6.87 µM); MIC (P. fluorescens ATCC13525): 25 µg/mL (≈ 54.9 µM); MIC (S. dysenteriae 4379-60): 0.012 µg/mL (≈ 0.0263 µM); MIC (P. cepacia ATCC25416): 0.78 µg/mL (≈ 1.71 µM)
3 | Cn1nnnc1SCC1=C(C(=O)O)N2C(=O)C(NC(=O)C(=NOCC(=O)NN=Cc3ccc(O)c(O)c3)c3csc(N)n3)C2SC1 (centres unmarked) [Example 2, 7-{2-[2-amino-1,3-thiazol-4-yl]-2-[3-(3,4-dihydroxybenzylidene)carbazoyl]methoxyiminoacetamido}-3-[(1-methyl-1,2,3,4-tetrazol-5-yl)thiomethyl]-3-cephem-4-carboxylic acid.hydrochloride] | 0.025 | 0.39 | 0.39 | 0.39 | 0.39 | 0.78 | 0.2 | 1.56 | 0.2 | 0.78 | 0.78 | 0.1 | 0.78 | 0.05 | 3.13 | 0.05 | 0.2 | 0.025 | 0.05 | 0.012 | MIC (S. typhi 1099-77; TYPHI): ≤ 0.006 µg/mL; MIC (S. aureus TASAKI; [2]): 1.56 µg/mL; MIC (S. aureus 209P JC-1): 0.78 µg/mL; MIC (S. aureus Smith): 3.13 µg/mL; MIC (B. subtilis ATCC6633): 0.39 µg/mL; MIC (S. sonnei SH72-415): 0.05 µg/mL; MIC (E. coli NIHJ JC-2): 0.39 µg/mL; MIC (S. faecalis IFO3826): > 100 µg/mL; MIC (S. anatum 677-69): 0.05 µg/mL; MIC (P. putida ATCC12633): 1.56 µg/mL; MIC (P. vulgaris ATCC6398): 0.05 µg/mL; MIC (P. aeruginosa ATCC9721): 0.2 µg/mL; MIC (P. fluorescens ATCC13525): 12.5 µg/mL; MIC (S. dysenteriae 4379-60): 0.025 µg/mL; MIC (P. cepacia ATCC25416): 0.78 µg/mL
